Like-named read-outs stand apart in the source and are kept apart here.
Columns and labels:
HCV replicon genotype 1b = test: HCV replicon assay, genotype 1b (cell ELISA for NS3/4A); type: cell-based, hepatitis C virus
Experimental: (§1) The HCV NS5B inhibitory activity of the present compounds may be tested using assays known in the art. The HCV NS5B polymerase inhibitors described herein have activities in a genotype 1b replicon assay as described in the Examples. The assay is performed by incubating a replicon harboring cell-line in the presence of inhibitor for a set period of time and measuring the effect of the inhibitor on HCV replicon replication either directly by quantifying replicon RNA level, or indirectly by measuring enzymatic activity of a co-encoded reporter enzyme such as luciferase or β-lactamase. By performing a series of such measurements at different inhibitor concentrations, the effective inhibitory concentration of the inhibitor (EC50 or EC90) is determined. See Jan M. Vrolijk et al., A replicons-based bioassay for the measurement of interferons in patients with chronic hepatitis C, 110 J. VIROLOGICAL METHODS 201 (2003). Such assays may also be run in an automated format for high through-put screening. See Paul Zuck et al., A cell-based β-lactamase reporter gene assay for the identification of inhibitors of hepatitis C virus replication, 334 ANALYTICAL BIOCHEMISTRY 344 (2004).
(§2) Measurement of inhibition by compounds was performed using the HCV replicon system. Several different replicons encoding different HCV genotypes or mutations were used. In addition, potency measurements were made using different formats of the replicon assay, including different ways of measurements and different plating formats. See Jan M. Vrolijk et al., A replicons-based bioassay for the measurement of interferons in patients with chronic hepatitis C, 110 J. VIROLOGICAL METHODS 201 (2003); Steven S. Carroll et al., Inhibition of Hepatitis C Virus RNA Replication by 2′-Modified Nucleoside Analogs, 278(14) J. BIOLOGICAL CHEMISTRY 11979 (2003). However, the underlying principles are common to all of these determinations, and are outlined below.
(§3) Stable neomycin phosphotransferase encoding replicons-harboring cell lines were used, so all cell lines were maintained under G418 selection prior to the assay. Potency was deteremined using a cell ELISA assay with an antibody to the replicons encoded NS3/4a protease. See Caterina Trozzi et al., In Vitro Selection and Characterization of Hepatitis C Virus Serine Protease Variants Resistant to an Active-Site Peptide Inhibitor, 77(6) J. Virol. 3669 (2003). To initiate an assay, replicon cells were plated in the presence of a dilution series of test compound in the absence of G418. Typically, the assays were performed in a 96-well plate formate for manual operation, or a 384-well plate format for automated assay. Replicon cells and compound were incubated for 96 hours. At the end of the assay, cells were washed free of media and compound, and the cells were then lysed. RNA was quantified indirectly through detection of replicon-encoded NS3/4A protein levels, through an ELISA-based assay with an antibody specific for NS3/4A. IC50 determinations were calculated as a percentage of a DMSO control by fitting the data to a four-parameter fit function and the data obtained is provided in the table below.
(§4) Data for selected compounds of the present invention was obtained for genotypes 1a and 1b using this method and is provided in the table below: […]

HCV replicon genotype 1a = test: HCV replicon assay, genotype 1a (cell ELISA for NS3/4A); type: cell-based, hepatitis C virus
Experimental: as §1, §2, §3, §4

[1] = read-out: 1b IC50, HCV genotype 1b replicon cells, 96 hours incubation, NS3/4A ELISA readout, % of DMSO control
[2] = read-out: 1a IC50, HCV genotype 1a replicon cells, 96 hours incubation, NS3/4A ELISA readout, % of DMSO control
[3] = Hepatitis C virus, 96 h, read-out: 1b IC50 (nM), HCV genotype 1b replicon cells, 96 hours incubation, NS3/4A ELISA readout, % of DMSO control
[4] = Hepatitis C virus, 96 h, read-out: 1a IC50 (nM), HCV genotype 1a replicon cells, 96 hours incubation, NS3/4A ELISA readout, % of DMSO control

## CNC(=O)c1c(-c2ccc(F)cc2)oc2cc(N(C)S(C)(=O)=O)c([C@@H]3CCCN(C(=O)Cc4ccc(F)cc4)C3)cc12 (single isomer, unassigned) [Example 18, 2-(4-fluorophenyl)-5-(1-(2-(4-fluorophenyl)acetyl)piperidin-3-yl)-N-methyl-6-(N-methylmethylsulfonamido)benzofuran-3-carboxamide]
HCV replicon genotype 1b; [1]
  IC50: 72.2 nM
HCV replicon genotype 1a; [2]
  IC50: 188 nM

## CNC(=O)c1c(-c2ccc(F)cc2)oc2cc(N(C)S(C)(=O)=O)c([C@@H]3CCCN(C(=O)c4ccc(F)cc4)C3)cc12 (single isomer, unassigned) [Example 19, 5-(1-(4-fluorobenzoyl)piperidin-3-yl)-2-(4-fluorophenyl)-N-methyl-6-(N-methylmethylsulfonamido)benzofuran-3-carboxamide]
HCV replicon genotype 1b; [3]
  IC50: 50.8 nM
HCV replicon genotype 1a; [4]
  IC50: 43.8 nM

## CNC(=O)c1c(-c2ccc(F)cc2)oc2cc(N(C)S(C)(=O)=O)c([C@@H]3CCCN(C(=O)c4ccc(F)cc4)C3)cc12 (single isomer, unassigned) [Example 20, 5-(1-(4-fluorobenzoyl)piperidin-3-yl)-2-(4-fluorophenyl)-N-methyl-6-(N-methylmethylsulfonamido)benzofuran-3-carboxamide]
HCV replicon genotype 1b; [1]
  IC50: 46.9 nM
HCV replicon genotype 1a; [2]
  IC50: 48 nM

## CNC(=O)c1c(-c2ccc(F)cc2)oc2cc(N(C)S(C)(=O)=O)c([C@@H]3CCCN(C(=O)c4cc5ccccc5[nH]4)C3)cc12 (single isomer, unassigned) [Example 21, 5-(1-(1H-indole-2-carbonyl)piperidin-3-yl)-2-(4-fluorophenyl)-N-methyl-6-(N-methylmethylsulfonamido)benzofuran-3-carboxamide]
HCV replicon genotype 1b; [3]
  IC50: 9.96 nM
HCV replicon genotype 1a; [2]
  IC50: 16.2 nM

## CNC(=O)c1c(-c2ccc(F)cc2)oc2cc(N(C)S(C)(=O)=O)c([C@@H]3CCCN(C(=O)c4cc5ccccc5[nH]4)C3)cc12 (single isomer, unassigned) [Example 22, 5-(1-(1H-indole-2-carbonyl)piperidin-3-yl)-2-(4-fluorophenyl)-N-methyl-6-(N-methylmethylsulfonamido)benzofuran-3-carboxamide]
HCV replicon genotype 1b; [1]
  IC50: 18.8 nM
HCV replicon genotype 1a; [2]
  IC50: 40.8 nM

## CNC(=O)c1c(-c2ccc(F)cc2)oc2cc(N(C)S(C)(=O)=O)c([C@@H]3CCCN(C(=O)c4nc5ccccc5n4C)C3)cc12 (single isomer, unassigned) [Example 23, 2-(4-fluorophenyl)-N-methyl-5-(1-(1-methyl-1H-benzo[d]imidazole-2-carbonyl)piperidin-3-yl)-6-(N-methylmethylsulfonamido)benzofuran-3-carboxamide]
HCV replicon genotype 1b; [3]
  IC50: 57.7 nM
HCV replicon genotype 1a; [4]
  IC50: 45.5 nM

## CNC(=O)c1c(-c2ccc(F)cc2)oc2cc(N(C)S(C)(=O)=O)c([C@@H]3CCCN(C(=O)c4nc5ccccc5n4C)C3)cc12 (single isomer, unassigned) [Example 24, 2-(4-fluorophenyl)-N-methyl-5-(1-(1-methyl-1H-benzo[d]imidazole-2-carbonyl)piperidin-3-yl)-6-(N-methylmethylsulfonamido)benzofuran-3-carboxamide]
HCV replicon genotype 1b; [1]
  IC50: 40.5 nM
HCV replicon genotype 1a; [2]
  IC50: 32.7 nM

## CNC(=O)c1c(-c2ccc(F)cc2)oc2cc(N(C)S(C)(=O)=O)c([C@@H]3CCCN(C(=O)c4cc5c(F)cccc5n4C)C3)cc12 (single isomer, unassigned) [Example 25, 5-(1-(4-fluoro-1-methyl-1H-indole-2-carbonyl)piperidin-3-yl)-2-(4-fluorophenyl)-N-methyl-6-(N-methylmethylsulfonamido)benzofuran-3-carboxamide]
HCV replicon genotype 1b; [1]
  IC50: 5.26 nM
HCV replicon genotype 1a; [4]
  IC50: 16.4 nM

## CNC(=O)c1c(-c2ccc(F)cc2)oc2cc(N(C)S(C)(=O)=O)c([C@@H]3CCCN(C(=O)c4cc5c(F)cccc5n4C)C3)cc12 (single isomer, unassigned) [Example 26, 5-(1-(4-fluoro-1-methyl-1H-indole-2-carbonyl)piperidin-3-yl)-2-(4-fluorophenyl)-N-methyl-6-(N-methylmethylsulfonamido)benzofuran-3-carboxamide]
HCV replicon genotype 1b; [1]
  IC50: 12.6 nM
HCV replicon genotype 1a; [2]
  IC50: 15.8 nM

## CNC(=O)c1c(-c2ccc(F)cc2)oc2cc(N(C)S(C)(=O)=O)c(C3CCCN(C(=O)[C@H](NC(=O)OC(C)(C)C)c4ccccc4F)C3)cc12 (single isomer, unassigned) [Example 27]
HCV replicon genotype 1b; [3]
  IC50: 35.2 nM
HCV replicon genotype 1a; [4]
  IC50: 44.4 nM

## CNC(=O)c1c(-c2ccc(F)cc2)oc2cc(N(C)S(C)(=O)=O)c(C3CCCN(C(=O)[C@H](NC(=O)OC(C)(C)C)c4ccccc4F)C3)cc12 (single isomer, unassigned) [Example 28]
HCV replicon genotype 1b; [1]
  IC50: 21.4 nM
HCV replicon genotype 1a; [2]
  IC50: 23.9 nM

## CNC(=O)c1c(-c2ccc(F)cc2)oc2cc(N(C)S(C)(=O)=O)c([C@@H]3CCCN(C(=O)[C@H](N)c4ccccc4F)C3)cc12 (single isomer, unassigned) [Example 29]
HCV replicon genotype 1b; [3]
  IC50: 148 nM
HCV replicon genotype 1a; [4]
  IC50: 83.1 nM

## CNC(=O)c1c(-c2ccc(F)cc2)oc2cc(N(C)S(C)(=O)=O)c([C@@H]3CCCN(C(=O)[C@H](N)c4ccccc4F)C3)cc12 (single isomer, unassigned) [Example 30]
HCV replicon genotype 1b; [1]
  IC50: 215 nM
HCV replicon genotype 1a; [2]
  IC50: 122 nM

## CNC(=O)c1c(-c2ccc(F)cc2)oc2cc(N(C)S(C)(=O)=O)c([C@@H]3CCCN(C(=O)c4cc5cccc(OC)c5[nH]4)C3)cc12 (single isomer, unassigned) [Example 41, 2-(4-fluorophenyl)-5-(1-(7-methoxy-1H-indole-2-carbonyl)piperidin-3-yl)-N-methyl-6-(N-methylmethylsulfonamido)benzofuran-3-carboxamide]
HCV replicon genotype 1b; [3]
  IC50: 13.5 nM
HCV replicon genotype 1a; [2]
  IC50: 30.7 nM

## CNC(=O)c1c(-c2ccc(F)cc2)oc2cc(N(C)S(C)(=O)=O)c([C@@H]3CCCN(C(=O)c4cc5cccc(OC)c5[nH]4)C3)cc12 (single isomer, unassigned) [Example 42, 2-(4-fluorophenyl)-5-(1-(7-methoxy-1H-indole-2-carbonyl)piperidin-3-yl)-N-methyl-6-(N-methylmethylsulfonamido)benzofuran-3-carboxamide]
HCV replicon genotype 1b; [1]
  IC50: 23.9 nM
HCV replicon genotype 1a; [2]
  IC50: 106 nM

## CNC(=O)c1c(-c2ccc(F)cc2)oc2cc(N(C)S(C)(=O)=O)c([C@@H]3CCCN(c4nc5ccccc5n4C)C3)cc12 (single isomer, unassigned) [Example 43, 2-(4-fluorophenyl)-N-methyl-5-(1-(1-methyl-1H-benzo[d]imidazol-2-yl)piperidin-3-yl)-6-(N-methylmethylsulfonamido)benzofuran-3-carboxamide]
HCV replicon genotype 1b; [3]
  IC50: 93 nM
HCV replicon genotype 1a; [4]
  IC50: 41.2 nM

## CNC(=O)c1c(-c2ccc(F)cc2)oc2cc(N(C)S(C)(=O)=O)c([C@@H]3CCCN(c4nc5ccccc5n4C)C3)cc12 (single isomer, unassigned) [Example 44, 2-(4-fluorophenyl)-N-methyl-5-(1-(1-methyl-1H-benzo[d]imidazol-2-yl)piperidin-3-yl)-6-(N-methylmethylsulfonamido)benzofuran-3-carboxamide]
HCV replicon genotype 1b; [1]
  IC50: 82.4 nM
HCV replicon genotype 1a; [2]
  IC50: 71 nM

## CNC(=O)c1c(-c2ccc(F)cc2)oc2cc(N(C)S(C)(=O)=O)c([C@@H]3CCCN(c4nc5ccccc5[nH]4)C3)cc12 (single isomer, unassigned) [Example 45, 5-(1-(1H-benzo[d]imidazol-2-yl)piperidin-3-yl)-2-(4-fluorophenyl)-N-methyl-6-(N-methylmethylsulfonamido)benzofuran-3-carboxamide]
HCV replicon genotype 1b; [1]
  IC50: 70.9 nM
HCV replicon genotype 1a; [2]
  IC50: 225 nM

## CNC(=O)c1c(-c2ccc(F)cc2)oc2cc(N(C)S(C)(=O)=O)c([C@@H]3CCCN(c4nc5ccccc5[nH]4)C3)cc12 (single isomer, unassigned) [Example 46, 5-(1-(1H-benzo[d]imidazol-2-yl)piperidin-3-yl)-2-(4-fluorophenyl)-N-methyl-6-(N-methylmethylsulfonamido)benzofuran-3-carboxamide]
HCV replicon genotype 1b; [1]
  IC50: 9.47 nM
HCV replicon genotype 1a; [2]
  IC50: 11.9 nM
